Test systems include HL-60; T47D; A549; IGROV-1; NCI-H226; COLO 205; TK-10; HCT-15; ACHN; 786-0; SK-MEL-5; A498; SNB-75; HOP-62; HT-29; DU-145; MDA-MB-231; OVCAR-4; HCC 2998; SK-OV-3.
Test in all cases: NCI-60 cell line screen, 48 h

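1) Cells in 96-well plates. 2) Compound, 48 h, 5 concentrations. 3) Linear interpolation between surrounding doses. 4) Unreached endpoint = highest concentration. GI50 is the concentration that inhibits growth by half.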 Activity calls are given as the source filed them. Cut-off read from the data, not from the text of the source: active = GI50 up to about 1.1 µM and inactive = higher.

In the case of `COc1ccc(/C=C2\CN(C)C/C(=C\c3ccc(OC)cc3)C2=O)cc1`, the GI50 in the assay with HL-60 was > 100 µM (inactive); in the assay with T47D, > 100 µM (inactive); in the assay on A549, > 100 µM (inactive); in the assay with IGROV-1, 52.2 µM (inactive); with NCI-H226 it was > 100 µM (inactive); with COLO 205 it was > 100 µM (inactive). The GI50 with TK-10 was > 100 µM (inactive); in the assay on HCT-15 it was over 100 µM; in the assay on ACHN it was > 100 µM (inactive); in the assay with 786-0, 28.6 µM (inactive); with SK-MEL-5, 32.8 µM (inactive); in the assay with A498, > 100 µM (inactive). The GI50 in the assay with SNB-75, with HOP-62, with HT-29, in the assay with DU-145, with MDA-MB-231 and with OVCAR-4 was > 100 µM (inactive) throughout. In the assay with HCC 2998, the GI50 is > 100 µM (inactive).
In the case of `C=C1C[C@@H]2O[C@H]3[C@H]4[C@@H](C[C@@H](C)[C@@H](OC(C)=O)[C@H]42)[C@@H](C)CO[C@@]3(C)[C@H](OC(C)=O)C[C@H]1O`, the GI50 is 16.9 µM (inactive) in the assay on HL-60; > 100 µM (inactive) in the assay with T47D; > 100 µM (inactive) in the assay on A549; > 100 µM (inactive) in the assay with IGROV-1; > 100 µM (inactive) in the assay with NCI-H226; 88.1 µM (inactive) in the assay with COLO 205. Also, the GI50 was > 100 µM (inactive) in the assay on TK-10; over 100 µM in the assay on HCT-15; > 100 µM (inactive) in the assay on ACHN; > 100 µM (inactive) in the assay with 786-0; > 100 µM (inactive) in the assay on SK-OV-3; > 100 µM (inactive) in the assay on SK-MEL-5. Moreover, the GI50 is > 100 µM (inactive) in the assay on A498; 84.3 µM (inactive) with SNB-75; 63.2 µM (inactive) in the assay on HT-29; > 100 µM (inactive) in the assay on DU-145; > 100 µM (inactive) with MDA-MB-231; > 100 µM (inactive) in the assay on OVCAR-4. Besides, in the assay on HCC 2998, the GI50 is > 100 µM (inactive).
`CC(C)(C)N/N=C(\C(=O)Nc1ccc([N+](=O)[O-])cc1[N+](=O)[O-])c1nc2ccc([N+](=O)[O-])cc2nc1O`: the GI50 in the assay on HL-60 is 47.3 µM (inactive); in the assay with T47D it was 36.3 µM (inactive); with A549, > 100 µM (inactive); in the assay with IGROV-1, > 100 µM (inactive); with NCI-H226 it was 23.7 µM (inactive); in the assay on COLO 205 it was 24.5 µM (inactive). The GI50 was 43.4 µM in the assay with HCT-15; > 100 µM (inactive) in the assay with ACHN; > 100 µM (inactive) with 786-0; > 100 µM (inactive) with SK-OV-3; 13.6 µM (inactive) in the assay on SK-MEL-5; > 100 µM (inactive) in the assay with A498. Further, the GI50 with SNB-75 was > 100 µM (inactive); in the assay with HT-29, > 100 µM (inactive); in the assay with DU-145 it was > 100 µM (inactive); in the assay with MDA-MB-231 it was > 100 µM (inactive); in the assay with OVCAR-4 it was 33.3 µM (inactive); in the assay with HCC 2998, 37.1 µM (inactive).
Turning to `CC(C)C(=O)/C=C/c1ccc(Cl)cc1Cl`, the GI50 in the assay with HL-60 was 7.05 µM (inactive); in the assay on T47D, 13 µM (inactive); in the assay with A549 it was 14.8 µM (inactive); with IGROV-1, 14.8 µM (inactive); in the assay with NCI-H226 it was 13.2 µM (inactive); in the assay with COLO 205, 18.5 µM (inactive). The GI50 with TK-10 was 14.2 µM (inactive); in the assay on HCT-15, 12.2 µM; in the assay on ACHN it was 16.2 µM (inactive); with 786-0 it was 14.2 µM (inactive); in the assay on SK-OV-3 it was 19.6 µM (inactive); with SK-MEL-5, 14.5 µM (inactive). In addition, the GI50 was 17.9 µM (inactive) in the assay with A498; 14.4 µM (inactive) with SNB-75; 18.5 µM (inactive) with HOP-62; 3.99 µM (inactive) in the assay with HT-29; 14.2 µM (inactive) in the assay with DU-145; 23.9 µM (inactive) with MDA-MB-231. The GI50 in the assay on OVCAR-4 is 6.75 µM (inactive); with HCC 2998 it was 16.4 µM (inactive).
`C/C=C/C(C#N)(Cc1ccccc1)OP1(=O)OC(c2ccccc2)C(C)N1C` (stereo not given): the GI50 in the assay with HL-60 is 17 µM (inactive); in the assay on T47D, 47.9 µM (inactive); in the assay on A549 it was 66.4 µM (inactive); in the assay on IGROV-1, 95.3 µM (inactive); in the assay with COLO 205, > 100 µM (inactive); in the assay on TK-10, > 100 µM (inactive). In addition, the GI50 in the assay with HCT-15 was 79.6 µM; in the assay on ACHN it was 84.1 µM (inactive); in the assay on 786-0, > 100 µM (inactive); in the assay on SK-OV-3, > 100 µM (inactive); in the assay on SK-MEL-5, 48.9 µM (inactive); in the assay with A498 it was 69.3 µM (inactive). Moreover, the GI50 with SNB-75 was > 100 µM (inactive); in the assay with HOP-62, > 100 µM (inactive); in the assay on HT-29 it was 69.2 µM (inactive); in the assay with DU-145 it was > 100 µM (inactive); in the assay on MDA-MB-231, > 100 µM (inactive); in the assay on HCC 2998, 81.3 µM (inactive).
Take `Cn1c(=O)oc2cc(C(O)CN3CCN(Cc4ccccn4)CC3)c(Cl)cc21` (stereo not given): the GI50 in the assay on HL-60, in the assay on T47D, in the assay on A549, with IGROV-1, in the assay on NCI-H226 and in the assay on COLO 205 was > 100 µM (inactive) in each case. For the same compound, the GI50 in the assay with TK-10 is > 100 µM (inactive); with HCT-15, over 100 µM; in the assay with ACHN, > 100 µM (inactive); with 786-0, > 100 µM (inactive); in the assay with SK-OV-3 it was > 100 µM (inactive); with A498, > 100 µM (inactive). For the same compound, the GI50 was 77.3 µM (inactive) in the assay with SNB-75; > 100 µM (inactive) with HOP-62; > 100 µM (inactive) in the assay with HT-29; > 100 µM (inactive) in the assay with DU-145; > 100 µM (inactive) with MDA-MB-231; > 100 µM (inactive) with OVCAR-4. For the same compound, the GI50 with HCC 2998 is > 100 µM (inactive).
Regarding `CCOC(=O)C(=O)/C(=C/NC(=S)c1ccncc1)C(=O)OCC`, the GI50 in the assay with HL-60, with T47D, in the assay with A549, with IGROV-1, in the assay with NCI-H226 and in the assay on COLO 205 was > 100 µM (inactive) each time. In addition, the GI50 in the assay on HCT-15 was over 100 µM; in the assay with ACHN, > 100 µM (inactive); in the assay on 786-0 it was > 100 µM (inactive); in the assay with SK-OV-3, > 100 µM (inactive); with SK-MEL-5 it was > 100 µM (inactive); with A498, > 100 µM (inactive). Further, the GI50 with SNB-75, in the assay with HOP-62, in the assay on HT-29, in the assay on DU-145, in the assay with MDA-MB-231 and in the assay on OVCAR-4 was > 100 µM (inactive) throughout. Besides, the GI50 with HCC 2998 is > 100 µM (inactive).
On to `CC(NC(=O)/C(=C/c1ccccc1)NC(=O)c1ccccc1)C(=O)O` (stereo not given), for which the GI50 in the assay on HL-60 is 77.1 µM (inactive); with T47D, 29.6 µM (inactive); in the assay with A549 it was > 100 µM (inactive); with IGROV-1, 21.3 µM (inactive); in the assay on NCI-H226, 26.1 µM (inactive); in the assay on COLO 205, > 100 µM (inactive). Besides, the GI50 in the assay on HCT-15 is 87.9 µM; in the assay with ACHN, 38.6 µM (inactive); with 786-0, 39.5 µM (inactive); in the assay with SK-OV-3, 87.3 µM (inactive); in the assay on SK-MEL-5 it was > 100 µM (inactive); with A498, > 100 µM (inactive). For the same compound, the GI50 in the assay on SNB-75 was 24.1 µM (inactive); in the assay on HOP-62, > 100 µM (inactive); with HT-29, > 100 µM (inactive); in the assay on DU-145, > 100 µM (inactive); in the assay on MDA-MB-231, 36.5 µM (inactive); in the assay on HCC 2998 it was > 100 µM (inactive).

The values are drawn from ChEMBL document CHEMBL1201862, “PubChem BioAssay data set” (2004).
